Key:
HepDE19 cells = test: Cytotoxicity, cell viability by MTT assay; assay type: cell-based, human; settings: for cell viability in the presence of TNFα: Tet-free medium, TNFα (10 ng/ml); for cell viability (MTT): with or without Tet-free medium, 24 h, vs non-transfected (NT) control
Description: The MTT assay was used to determine metabolic activity and cell viability as an indicator of cellular cytotoxicity. Twenty-four hours after gRNA/Cas9 transfection, the cells were cultured in a Tet-free medium for an additional 24 h. For measuring cell proliferation, the cells were cultured in the Tet-free medium for an additional 3 days in a 96-well plate. The culture medium (100 μl) was changed and MTT reagent (0.5 mg/ml) was added at 37° C. for 4 h, followed by measuring the absorbance at 550-690 nm using a spectrophotometer (BioTek SYNERGY H1).
NAD (P) H-dependent cellular oxidoreductase enzymes reduce the tetrazolium MTT (3-(4,5-Dimethylthiazol 2-yl)-2,5-diphenyltetrazolium bromide) salt into insoluble formazan, which indicates the overall survival and metabolic activity of a living cell. To determine whether gRNA5/Cas9 or gRNA9/Cas9 exert any cytotoxic effects on HepDE19 cells, cell viability after transfection with gRNA5 or gRNA9 in the presence or absence of Tet-free medium (for HBV induction) for 24 h was measured using the MTT assay. […] Since HBV itself is not a direct cytopathic pathogen but can induce cell injury via immune-mediated mechanisms, the viability of transfected and non-transfected HepDE19 cells cultured in a Tet-free medium in the presence of TNFα, which can induce apoptotic cell death, was observed. […] Moreover, flow cytometry analysis was performed to detect the cell surface apoptotic marker annexin V and the loss of the plasma membrane integrity (measured by up taking 7-ADD). Cell apoptosis was then evaluated by measuring the Av and 7ADD levels in gRNA-transfected HepDE19 cells with or without Tet-free medium. No significant differences in cell apoptosis among the different treatments were observed (FIG. 16C). Finally, the proliferative ability of HepDE19 cells with or without gRNA transfection for 3 days was assessed, using the MTT assay. No significant differences in cell proliferation were found (FIG. 16D).

HBV DNA = test: Sanger sequencing of HBV DNA fragments from treated HepDE19 cells; assay type: cell-based, Hepatitis B virus (HBV); settings: compared with gRNAc
Description: Following treatment with gRNA5/Cas9+gRNA9/Cas9, or gRNAc/Cas9 RNPs, genomic DNA was isolated from HepDE19 cells using the PureLink Genomic DNA Mini Kit (Cat #K182001, Invitrogen). DNA fragments containing the gRNA target sequences were amplified by qPCR using primers flanking the cleavage sites. The PCR products were confirmed using 1% agarose gel electrophoresis and purified using a QIAquick gel extraction kit (Cat #28704, Qiagen). Sequencing of the extracted DNA fragments was performed by GENEWIZ (Chelmsford, MA) using Sanger's sequencing method. The PCR primers used for the detection of gRNA5 and gRNA9 flanking regions are described above. The sequencing readouts were aligned with the gRNAc, which was compared to the HBV sequence in the database (ayw strain, Genbank accession number: NC_003977.2). The Chromas's software (Technelysium DNA sequencing software) was used to read the nucleotide peaks, and the alignment of two or more sequences was performed using the BLAST tool from NCBI-BLAST to compare the nucleotide sequences.
Following a successful CRISPR/Cas9 cleavage, DNA damage repair pathways are initiated, and nucleotide mutagenesis occurs in the targeted genome, introducing substitution mutations. […]

HBV cccDNA = test: HBV-infected HepG2-NTCP cells directly transfected with gRNA/Cas9 RNPs, HBV cccDNA qPCR; assay type: cell-based, Hepatitis B virus (HBV); settings: direct transfection for 3 days
Description: To test whether the synthetic gRNA/Cas9 can reduce newly formed HBV cccDNA in HepG2-NTCP cells, the cells with HBV particle-containing supernatants from HepDE19 cells (supernatants harvested 6 days after culture in Tet-free media) were infected. The HepG2-NTCP cells were infected with HBV particles for 6 days and then transfected with gRNA5, gRNA9, gRNA5 plus gRNA9 (in combination), or gRNAc RNPs for 3 days, followed by measuring HBV cccDNA. In another experiment, the infected HepG2-NTCP cells were incubated for 3 days with exosomes packaged with gRNA5, gRNA9, gRNA5 plus gRNA9 (in combination), or gRNAc RNPs, followed by measuring HBV cccDNA.
In another experiment, 1×10^6 HepG2-NTCP cells were infected using supernatants containing HBV particles from HepDE19 cells that were maintained for 6 days. The HBV-infected HepG2-NTCP cells were transfected with gRNA5, gRNA9, gRNA5 plus gRNA9, or gRNAc RNPs as described above. The cells were maintained for 3 days in a complete culture medium and then harvested for HBV cccDNA detection by qPCR.
Total and protein-free HBV DNAs were extracted from whole cell lysate using the Hirt DNA method according to a previously published protocol. […] HBV total DNA and cccDNA were analyzed by real-time PCR using a TaqMan PCR assay. […] The DNA levels were determined by the […] method and values were normalized to the control group.

Row | Sequence | cytotoxicity to hepatocytes (overall conclusion) (HepDE19 cells) | cell viability in the presence of TNFα (HepDE19 cells) | cell viability (MTT) (HepDE19 cells) | cell viability (MTT) (HepDE19 cells; listed as gRNA5/Cas9) | mutations at gRNA-targeted sites of HBV DNA (Sanger sequencing) (HBV DNA) | HBV cccDNA levels (HBV cccDNA) | cell viability (MTT) (HepDE19 cells; listed as gRNA9/Cas9)
1 | GTTATCGCTGGATGTGTCTGNGG (guide GUUAUCGCUGGAUGUGUCUGNGG; complexed with Cas9 protein, chemistry not fully specified) [gRNA5, tested as synthetic gRNA/Cas9 RNP] | not cytotoxic | No cytotoxic effects | no significant differences in the viability | no differences in the viability | specific DNA indel mutations | significantly reduced | –
2 | GGTCTCCATGCGACGTGCAGNGG [gRNA9] | not cytotoxic | No cytotoxic effects | no significant differences in the viability | – | specific DNA indel mutations | significantly reduced | no differences in the viability
